Source: PubChem BioAssay AID248 (DTP/NCI, 2004)
“And” between values parts separate entries of the source, which are not always exact repeats. Identical values can stand only once. Toxic doses and inconclusive results are not listed.

System: L1210 leukemia ip in BDF1 mice, survival T/C
Experiment: NCI In Vivo Anticancer Drug Screen. Data for tumor model L1210 Leukemia (intraperitoneal) in B6D2F1 (BDF1) mice
Conditions: endpoint: mean survival time, higher = longer survival
How it was run: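 Antitumor effect is assessed in tumor-bearing animals. Survival in the compound arm is compared with a vehicle-dosed control arm and expressed as their quotient.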

[1] = dose: 100.0 mg/kg/injection, schedule: Q04DX002 (ip), vehicle: Klucel (hydroxypropylcellulose) (HPC)
[2] = dose: 200.0 mg/kg/injection, schedule: Q04DX002 (ip), vehicle: Klucel (hydroxypropylcellulose) (HPC)
[3] = dose: 100.0 mg/kg/injection, schedule: Q01DX009 (ip), vehicle: saline with Tween-80
[4] = dose: 200.0 mg/kg/injection, schedule: Q01DX009 (ip), vehicle: saline with Tween-80
[5] = dose: 100.0 mg/kg/injection, schedule: Q01DX001 (ip), vehicle: saline with Tween-80
[6] = dose: 200.0 mg/kg/injection, schedule: Q01DX001 (ip), vehicle: saline with Tween-80
[7] = dose: 100.0 mg/kg/injection, schedule: Q01DX001 (ip), vehicle: saline
[8] = dose: 200.0 mg/kg/injection, schedule: Q01DX001 (ip), vehicle: saline
[9] = dose: 400.0 mg/kg/injection, schedule: Q01DX001 (ip), vehicle: saline

Cc1cccc(C(=O)C(O)(c2ccccc2)C2CCCCC2=O)c1 (stereo not drawn)
T/C [1]: 100 % of control
T/C [2]: 92 % of control
T/C (dose: 400.0 mg/kg/injection, schedule: Q04DX002 (ip), vehicle: Klucel (hydroxypropylcellulose) (HPC)): 114 % of control

c1ccc(C2C(c3ccccc3)C(c3ccccc3)C2c2ccccc2)cc1 (stereo not drawn)
T/C (dose: 75.0 mg/kg/injection, schedule: Q01DX001 (ip), vehicle: carboxymethylcellulose (CMC)): 91 % of control
T/C (dose: 150.0 mg/kg/injection, schedule: Q01DX001 (ip), vehicle: carboxymethylcellulose (CMC)): 94 % of control
T/C (dose: 300.0 mg/kg/injection, schedule: Q01DX001 (ip), vehicle: carboxymethylcellulose (CMC)): 88 % of control

Cc1ccc(S(=O)(=O)N(CCC(=O)O)c2ccccc2)cc1
T/C [3]: 90 % of control
T/C [4]: 97 % of control

COc1ccc(/C=C2\N=C(c3cc(OC)c(OC)c(OC)c3)OC2=O)cc1Br
T/C [3]: 91 % of control
T/C [4]: 91 % of control
T/C (dose: 400.0 mg/kg/injection, schedule: Q01DX009 (ip), vehicle: saline with Tween-80): 102 % of control

CCN=C(c1ccc(NC(=O)c2ccc(C(=O)Nc3ccc(C(=NCC)N(CC)C(=O)NC)cc3)cc2)cc1)N(CC)C(=O)NC
T/C (dose: 6.25 mg/kg/injection, schedule: Q01DX015 (ip), vehicle: methylcellulose (MC)): 93 % of control
T/C (dose: 12.5 mg/kg/injection, schedule: Q01DX015 (ip), vehicle: methylcellulose (MC)): 100 % of control

CCOc1ccccc1/C=N\N=C(N/N=C/c1ccccc1OCC)N/N=C/c1ccccc1OCC
T/C (dose: 60.0 mg/kg/injection, schedule: Q01DX Z (oral), vehicle: saline): 91 % of control
T/C (dose: 120.0 mg/kg/injection, schedule: Q01DX Z (oral), vehicle: saline): 100 % of control
T/C (dose: 240.0 mg/kg/injection, schedule: Q01DX Z (oral), vehicle: saline): 95 % of control
T/C (dose: 480.0 mg/kg/injection, schedule: Q01DX Z (oral), vehicle: saline): 95 % of control

CC(CO)CCCC(C)C1CCC2C3CC=C4CC(O)CCC4(C)C3CCC12C (stereo not drawn)
T/C [5]: 94 % of control
T/C [6]: 90 % of control
T/C (dose: 400.0 mg/kg/injection, schedule: Q01DX001 (ip), vehicle: saline with Tween-80): 100 % of control

CCOC(=O)CCN(C(=O)OCC)C(COCc1ccccc1)C(=O)OCC (stereo not drawn)
T/C [7]: 104 % of control
T/C [8]: 104 % of control
T/C [9]: 98 % of control

Nc1nc2ncnc(N)c2nc1-c1ccc(N(CCCl)CCCl)cc1
T/C [7]: 98 % of control
T/C [8]: 95 % of control
T/C [9]: 102 % of control

O=C(Nc1ccc(C2=NCCN2)cc1)c1cc(Cl)cc(C(=O)Nc2ccc(C3=NCCN3)cc2)c1
T/C (dose: 62.5 mg/kg/injection, schedule: Q01DX009 (ip), vehicle: saline): 96 % of control and 104 % of control
T/C (dose: 120.0 mg/kg/injection, schedule: Q01DX Z (oral), vehicle: carboxymethylcellulose (CMC)): 102 % of control
T/C (dose: 125.0 mg/kg/injection, schedule: Q01DX009 (ip), vehicle: saline): 99 % of control and 106 % of control
T/C (dose: 140.0 mg/kg/injection, schedule: Q01DX010 (ip), vehicle: saline): 105 % of control
T/C (dose: 140.0 mg/kg/injection, schedule: Q01DX Z (ip), vehicle: methylcellulose (MC)): 107 % of control and 110 % of control
T/C (dose: 210.0 mg/kg/injection, schedule: Q01DX010 (ip), vehicle: saline): 109 % of control
T/C (dose: 210.0 mg/kg/injection, schedule: Q01DX Z (ip), vehicle: methylcellulose (MC)): 115 % of control
T/C (dose: 240.0 mg/kg/injection, schedule: Q01DX Z (oral), vehicle: carboxymethylcellulose (CMC)): 104 % of control
T/C (dose: 250.0 mg/kg/injection, schedule: Q01DX009 (ip), vehicle: saline): 96 % of control and 104 % of control
T/C (dose: 315.0 mg/kg/injection, schedule: Q01DX010 (ip), vehicle: saline): 98 % of control and 105 % of control
T/C (dose: 315.0 mg/kg/injection, schedule: Q01DX Z (ip), vehicle: methylcellulose (MC)): 179 % of control
T/C (dose: 473.0 mg/kg/injection, schedule: Q01DX010 (ip), vehicle: saline): 107 % of control and 110 % of control
T/C (dose: 473.0 mg/kg/injection, schedule: Q01DX Z (ip), vehicle: methylcellulose (MC)): 151 % of control
T/C (dose: 480.0 mg/kg/injection, schedule: Q01DX Z (oral), vehicle: carboxymethylcellulose (CMC)): 107 % of control
T/C (dose: 500.0 mg/kg/injection, schedule: Q01DX009 (ip), vehicle: saline): 103 % of control and 112 % of control
T/C (dose: 960.0 mg/kg/injection, schedule: Q01DX Z (oral), vehicle: carboxymethylcellulose (CMC)): 100 % of control

O=S(=O)(/C(Br)=C\c1ccccc1)c1ccccc1
T/C [7]: 103 % of control
T/C (dose: 100.0 mg/kg/injection, schedule: Q01DX009 (ip), vehicle: saline): 104 % of control
T/C (dose: 100.0 mg/kg/injection, schedule: Q04DX003 (ip), vehicle: saline): 98 % of control
T/C [8]: 102 % of control
T/C (dose: 200.0 mg/kg/injection, schedule: Q01DX009 (ip), vehicle: saline): 110 % of control
T/C (dose: 200.0 mg/kg/injection, schedule: Q04DX003 (ip), vehicle: saline): 101 % of control
T/C [9]: 102 % of control
T/C (dose: 400.0 mg/kg/injection, schedule: Q01DX009 (ip), vehicle: saline): 98 % of control
T/C (dose: 400.0 mg/kg/injection, schedule: Q04DX003 (ip), vehicle: saline): 98 % of control

CC(C)CCCC(C)C1CCC2C3CCC4CC(O)CCC4(C)C3CCC12C (stereo not drawn)
T/C (dose: 100.0 mg/kg/injection, schedule: Q01DX001 (sc), vehicle: steriod suspending solution): 109 % of control
T/C (dose: 200.0 mg/kg/injection, schedule: Q01DX001 (sc), vehicle: steriod suspending solution): 109 % of control
T/C (dose: 400.0 mg/kg/injection, schedule: Q01DX001 (sc), vehicle: steriod suspending solution): 100 % of control

CCOC(=O)c1[nH]c(-c2ccccc2)c(/C=N\O)c1-c1ccccc1
T/C (dose: 50.0 mg/kg/injection, schedule: Q01DX001 (ip), vehicle: Klucel (hydroxypropylcellulose) (HPC)): 105 % of control
T/C (dose: 100.0 mg/kg/injection, schedule: Q01DX001 (ip), vehicle: Klucel (hydroxypropylcellulose) (HPC)): 100 % of control
T/C (dose: 200.0 mg/kg/injection, schedule: Q01DX001 (ip), vehicle: Klucel (hydroxypropylcellulose) (HPC)): 93 % of control

CC(C)COC(=O)COc1ccccc1
T/C (dose: 100.0 mg/kg/injection, schedule: Q04DX003 (ip), vehicle: saline with Tween-80): 104 % of control
T/C (dose: 200.0 mg/kg/injection, schedule: Q04DX003 (ip), vehicle: saline with Tween-80): 104 % of control
T/C (dose: 400.0 mg/kg/injection, schedule: Q04DX003 (ip), vehicle: saline with Tween-80): 86 % of control

O=c1[nH]cnc2nc(Br)[nH]c12
T/C [7]: 104 % of control
T/C [8]: 95 % of control
T/C [9]: 98 % of control

CC(C)c1nc(C=O)c(C=O)n1Cc1ccccc1
T/C (dose: 25.0 mg/kg/injection, schedule: Q01DX009 (ip), vehicle: saline with Tween-80): 100 % of control and 90 % of control
T/C (dose: 25.0 mg/kg/injection, schedule: Q04DX002 (ip), vehicle: saline with Tween-80): 101 % of control and 103 % of control
T/C (dose: 25.0 mg/kg/injection, schedule: Q04DX003 (ip), vehicle: carboxymethylcellulose (CMC)): 92 % of control
T/C (dose: 50.0 mg/kg/injection, schedule: Q01DX001 (ip), vehicle: saline with Tween-80): 89 % of control
T/C (dose: 50.0 mg/kg/injection, schedule: Q01DX009 (ip), vehicle: saline with Tween-80): 102 % of control and 103 % of control
T/C (dose: 50.0 mg/kg/injection, schedule: Q04DX002 (ip), vehicle: saline with Tween-80): 95 % of control and 101 % of control
T/C (dose: 50.0 mg/kg/injection, schedule: Q04DX003 (ip), vehicle: carboxymethylcellulose (CMC)): 95 % of control
T/C [5]: 96 % of control
T/C [3]: 94 % of control and 105 % of control
T/C [1]: 105 % of control
T/C (dose: 100.0 mg/kg/injection, schedule: Q04DX002 (ip), vehicle: other): 98 % of control and 89 % of control
T/C (dose: 100.0 mg/kg/injection, schedule: Q04DX002 (ip), vehicle: saline with Tween-80): 95 % of control and 86 % of control
T/C (dose: 100.0 mg/kg/injection, schedule: Q04DX003 (ip), vehicle: carboxymethylcellulose (CMC)): 100 % of control
T/C [6]: 94 % of control
T/C [2]: 107 % of control
T/C (dose: 200.0 mg/kg/injection, schedule: Q04DX002 (ip), vehicle: other): 98 % of control

O=C(O)CCC1CC1C(=O)c1ccccc1 (stereo not drawn)
T/C (dose: 50.0 mg/kg/injection, schedule: Q04DX003 (ip), vehicle: Klucel (hydroxypropylcellulose) (HPC)): 102 % of control
T/C (dose: 100.0 mg/kg/injection, schedule: Q04DX003 (ip), vehicle: Klucel (hydroxypropylcellulose) (HPC)): 100 % of control
T/C (dose: 200.0 mg/kg/injection, schedule: Q04DX003 (ip), vehicle: Klucel (hydroxypropylcellulose) (HPC)): 103 % of control
T/C (dose: 400.0 mg/kg/injection, schedule: Q04DX003 (ip), vehicle: Klucel (hydroxypropylcellulose) (HPC)): 103 % of control
